# Test system: MG-63 cells
# Experiment: Combination assay (concentration matrix, resazurin, Loewe synergy) in MG-63
# Type: cell-based
# Settings: MG-63, semi-solid media
# Procedure: Combinatorial anti-proliferative effects of Cpd. B (“B) in the tables below) and BGJ398 (“C” in the tables below) were measured in KYM-1, MG-63, and Hs-683 cells on 96-well-plates using the concentration matrix depicted below:
# Cells were grown under three different conditions (see FIG. 7): Experiments labeled “monolayer” were conducted on regular tissue culture plates, allowing cells to adhere and eventually form a monolayer. Cells were seeded on 3 plates per experiment (triplicates) in standard growth media as described above at a density of 5000 per well. Six to eight wells on a separate plate were seeded to quantify the amount of viable cells at the point of compound addition. […] At the same time, viable cells on the separate plate mentioned above were quantified using a resazurin sodium salt dye reduction readout. […] Quantification of Synergy was done using the methods described in G. R. Zimmermann et al., Drug Discovery Today, Vol. 12, No. ½, 2007, pages 34 to 42, and especially J. Lehár et al., Nature Biotechnology Vol. 27, No. 7, 2009, pages 659 to 666, in short by iteratively calculating the Loewe additive response ILoewe (X, Y) at each dose matrix point from the single-agent response curves, and then summing the differences between ILoewe and the experimental data. […]
smiles,measurement,value
"CCN1CCN(c2ccc(Nc3cc(N(C)C(=O)Nc4c(Cl)c(OC)cc(OC)c4Cl)ncn3)cc2)CC1 [BGJ398, 3-(2,6-dichloro-3,5-dimethoxy-phenyl)-1-{6-[4-(4-ethylpiperazin-1-yl)-phenylamino]-pyrimidin-4-yl}-1-methyl-urea]",growth inhibition,strong growth inhibition
